Legend:
MitoPark™ mice = assay: Spontaneous locomotor activity of MitoPark mice; assay type: in vivo
From the text: Vertical movements declined earlier and faster than horizontal movements (data not shown), modeling the early occurrence of axial postural instability in PD. […] The MitoPark™ mice began to lose weight from ˜20 weeks and died at 29-33 weeks of age, at which point the majority of substantia nigra DA neurons had been lost.

[1] = test system: TH-positive neurons in the SNpc; assay: Stereology of TH-positive neurons in SNpc after MPTP; details: MPTP-alone regimen
Procedure: (§1) Eight weeks after transplantation, recipient mice were injected with MPTP to induce dopaminergic neurodegeneration. MPTP dissolved in saline was injected subcutaneously into MSP-GDNF and MSP-GFP mice as follows: 15 mg/kg free base MPTP on day 1, 25 mg/kg on day 2, and 30 mg/kg on days 3-7. Control mice were treated with saline following the same regimen. Nine weeks after the last injection of MPTP or saline, MSP-GFP mice were sacrificed to evaluate the differentiation of gene-modified macrophages into microglia and their recruitment to substantia nigra.
Three or nine weeks after the last MPTP or saline injection, recipient mice were sacrificed and the neuroprotective effect of macrophage-mediated GDNF delivery on the nigrostriatal dopaminergic system was assessed by quantitative analysis of TH-positive neurons in the substantia nigra pars compacta (SNpc), as well as the density of TH-positive terminals in the striatum. […] In addition, total number of Nissl-stained neurons in the SNpc was counted for each treatment group to make sure that GDNF treatment indeed prevented actual cell death (FIG. 8).

[2] = test system: TH-positive cells in the SNpc; assay: Continuous MPTP osmotic minipump infusion, TH-positive and GFP cells in SNpc; assay type: in vivo, mice; details: continuous infusion 5 mg MPTP/kg daily for 28 days
Procedure: FIGS. 7A-B. Plots of quantitative stereologic data illustrating TH-positive cells in the SNpc from mice that were continuously treated with saline (n=3) or 5 mg MPTP/kg daily (n=2) for 28 days (FIG. 7A). Semi-quantitative analysis of GFP-positive cells in the nigra of mice that were continuously treated with saline (n=3) or 5 mg MPTP/kg daily (n =2) for 28 days. Each bar represents the mean±standard error of the total number of GFP-positive cells per five representative sections of substantia nigra pars compacta per animal (FIG. 7B).
The minipumps were implanted subcutaneously on the upper back of the animal. The minipumps delivers saline or MPTP at a flow rate 0.35μ1/hr for 28 days. The concentration of MPTP solution was adjusted in such a way that the animals receive or 5 mg MPTP/kg daily for 28 days. On day 30 (after the start of MPTP or saline) the animals were killed and the brains were analyzed for the loss of TH-posive cells and the recruitment bone marrow derived GFP cells in the SNpc.

mice = assay: Motor coordination tests in MPTP-only model; assay type: in vivo; details: MPTP-treated group vs saline-treated controls
From the text: MPTP/probenecid mouse model. […] In addition, spontaneous recovery of the nigrostriatal system that is typically observed with this regimen places limits on detection of changes in motor coordination. Mice were subjected to tests for motor coordination, including rotarod test, gait test/foot print analysis, pole test, beam walking test, and grid test.

[3] = test system: substantia nigra microglia; assay: Recruitment of bone marrow-derived microglia to substantia nigra after MPTP; assay type: in vivo; details: MSP-GFP mice nine weeks after the last injection of MPTP
Procedure: as §1

[4] = without irradiation and chemotherapy; cited from earlier work
[5] = cited from earlier work

## N[C@@H](Cc1ccc(O)c(O)c1)C(=O)O [L-DOPA]
MitoPark™ mice
  locomotor deficits: transiently reversed

## CN1CC=C(c2ccccc2)CC1 [MPTP, 1-methyl-4-phenyl-1,2,3,6-tetrahydropyridine]
[1]
  reduction in TH-positive cells: approximately 50%
[2]
  increase in the number of bone marrow derived GFP cells in the SNpc: four-fold
  loss of TH-positive cells in the SNpc: approximately 31%
mice
  motor coordination (rotarod, gait/foot print, pole, beam walking, grid test): None of these tests showed statistically significant differences
[3]
  proportion of total microglia (Iba1-positive) in the nigra that were bone marrow derived: 47%

## c1cc(CN2CCCNCCNCCCNCC2)ccc1CN1CCCNCCNCCCNCC1 [AMD3100]
[4]
  effectiveness as conditioning regimen: not to be sufficiently effective

B1: glial cell line derived neurotrophic factor (protein, UniProt P39905 78-211, looked up)
Glial cell line-derived …: SPDKQMAVLPRRERNRQAAAANPENSRGKGRRGQRGKNRGCVLTAIHLNVTDLGLGYETKEELIFRYCSGSCDAAETTYDKILKNLSRNRRLVSDKVGQACCRPIAFDDDLSFLDDNLVYHILRKHSAKRCGCI
[5]; direct brain infusion
  side effects: side effects, including allodynia and weight loss
[5]; high doses (100 μg/day) intraputamenal
  cerebellar toxicity: significant cerebellar Purkinje cell death
